Measured values from patent publication US20060241145A1, “Piperidine derivative crystal, process for producing the same, and use” (priority 2005, published 2006).
Counter-ions that a name gives are not always drawn.

Tests used:
substance P receptor = molecular target: T1, substance P receptor (Homo sapiens, UniProt P25103); test: Radioligand receptor binding inhibitory activity (binding inhibitory activity using receptor from human lymphoblast cells (IM-9)); conditions: 125I-BHSP (substance P labeled with [125I]), receptor from IM-9 cells, 25° C. 30 min
T1 construct: The receptors were prepared from human lymphoblast cells (IM-9); endogenous in cells; host or cells: IM-9 human lymphoblast cells (membrane preparation)
Experimental: Radioligand receptor binding inhibitory activity (Binding inhibitory activity using receptor from human lymphoblast cells (IM-9))
The method of M. A. Cascieri et al., “Molecular Pharmacology 42, p. 458 (1992)” was modified and used. The receptors were prepared from human lymphoblast cells (IM-9). IM-9 cells (2×10^5 cells/mL) were incubated for 3 days (one liter), which were then subjected to centrifuge for 5 min. at 500×G to obtain cell pellets. The obtained pellets were washed once with phosphate buffer (Flow Laboratories, CAT. No. 28-103-05), which were then homogenized using Polytron homogenizer (“Kinematika”, Germany) in 30 mL of 50 mM Tris-HCl buffer (pH 7.4) containing 120 mM sodium chloride, 5 mM potassium chloride, 2 μg/mL chymostatin, 40 μg/mL bacitracin, 5 μg/mL phosphoramidon, 0.5 mM phenylmethylsulfonyl fluoride, 1 mM ethylenediamine tetra-acetate, which was subjected to centrifuge at 40,000×G for 20 min. The residue was washed twice with 30 mL of the buffer, which was then preserved frozen (−80° C.) as a specimen of the receptors.
The specimen was suspended in a reaction buffer (50 mM Tris-HCl buffer (pH 7.4), 0.02% bovine serum albumin, 1 mM phenylmethylsulfonyl fluoride, 2 μg/mL chymostatin, 40 μg/mL bacitracin and 3 mM manganese chloride) to have protein in the concentration of 0.5 mg/mL of protein and 100 μL portion of the suspension was used in the reaction. After addition of the sample and ^125I-BHSP (0.46 KBq), the reaction was allowed to proceed in 0.2 mL of reaction buffer at 25° C. for 30 min. The amount of nonspecific binding was determined by adding substance P at a final concentration of 2×10^−6 M.
After the reaction, using a cell harvester (290 PHD, Cambridge Technology, Inc, U.S.A.), the reaction solution was filterd through a glass filter (GF/B, Whatman, U.S.A.), which was immersed in 0.1% polyethyleneimine for 24 hrs. and dried. After washing three times with 250 μL of 50 mM Tris-HCl buffer (pH 7.4) containing 0.02% bovine serum albumin, the radioactivity remaining on the filter was determined with a gamma counter.
The antagonistic activity of each compound obtained in Examples was determined in terms of the concentration necessary to cause 50% inhibition (IC50 value) under the above-described conditions, and the results were shown in Table 9.
The radio ligand means substance P labeled with [^125I].

[1] = tested on: urethane anesthetized male guinea pigs; test: Bladder capacity increasing action in urethane anesthetized guinea pigs; assay type: in vivo, guinea pig; conditions: for changes in bladder capacity (vs. before administration, %) / changes in voiding pressure (vs. before administration, %): mean ± standard error; for effect on bladder capacity (in words) / effect on voiding pressure (in words): intravenous, summary of Table 10
Text: Bladder Capacity Increasing Activity of Tachykinin Receptor Antagonist, Oxybutynin and Tolterodine (Bladder Capacity Increasing Action in Urethane Anesthetized Guinea Pigs)
A urinary frequency/urinary incontinence suppressing effect of a substance having antagonistic action for tachykinin receptors was shown in terms of the ability to increase bladder capacity in urethane anesthetized male guinea pigs and compared with that of oxybutynin and tolterodine, which are therapeutic drugs for overactive bladder. Using male guinea pig under anesthesia, after emptying the bladder by suction, saline was infused into the bladder at a constant rate (0.3 mL/min.) until voiding. This procedure was repeated to confirm stable bladder capacity (amount of saline injected before induction of voiding). After confirming a stable response, a compound dissolved in DMSO was intravenously administered and the action was measured. Changes in the bladder capacity and voiding pressure after drug administration were measured.

T1 sequence (P25103 whole entry): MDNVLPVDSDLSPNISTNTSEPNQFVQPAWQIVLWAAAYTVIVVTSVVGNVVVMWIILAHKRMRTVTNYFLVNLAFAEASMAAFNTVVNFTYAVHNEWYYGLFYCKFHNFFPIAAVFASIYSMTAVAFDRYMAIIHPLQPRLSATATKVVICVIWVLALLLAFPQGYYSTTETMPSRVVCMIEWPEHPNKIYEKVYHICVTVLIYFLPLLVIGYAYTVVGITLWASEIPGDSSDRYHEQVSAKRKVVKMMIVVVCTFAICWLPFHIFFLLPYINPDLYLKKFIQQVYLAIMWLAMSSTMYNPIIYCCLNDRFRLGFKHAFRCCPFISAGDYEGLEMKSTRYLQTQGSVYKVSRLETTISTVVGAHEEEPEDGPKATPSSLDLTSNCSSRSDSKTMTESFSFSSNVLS

Structure (SMILES): COc1ccc(-n2nnnc2C(F)(F)F)cc1CN[C@H]1CCN(C(=O)CN2C(=O)CCC2=O)C[C@H]1c1ccccc1 [Example 7, 1-{2-[(3R,4S)-4-({2-methoxy-5-[5-(trifluoromethyl)-1H-tetrazol-1-yl]benzyl}amino)-3-phenylpiperidin-1-yl]-2-oxoethyl}pyrrolidine-2,5-dione monohydrochloride]
- IC50 (substance P receptor): 0.015 nM

Structure (SMILES): COc1ccc(-n2nnnc2C(F)(F)F)cc1CN[C@H]1CCN(C(=O)CNC(C)=O)C[C@H]1c1ccccc1 [Example 20, N-{2-[(3R,4S)-4-({2-methoxy-5-[5-(trifluoromethyl)-1H-tetrazol-1-yl]benzyl}amino)-3-phenylpiperidin-1-yl]-2-oxoethyl}acetamide]
- IC50 (substance P receptor): 0.017 nM
- changes in bladder capacity (vs. before administration, %) ([1]; dose 0.01 mg/kg intravenously): 5.8 ± 11.1%
- changes in voiding pressure (vs. before administration, %) ([1]; dose 0.01 mg/kg intravenously): 10.1 ± 8.4%
- changes in bladder capacity (vs. before administration, %) ([1]; dose 0.03 mg/kg intravenously): 3.0 ± 8.2%
- changes in voiding pressure (vs. before administration, %) ([1]; dose 0.03 mg/kg intravenously): 18.5 ± 18.5%
- changes in bladder capacity (vs. before administration, %) ([1]; dose 0.1 mg/kg intravenously): 42.9 ± 6.0 %
- changes in voiding pressure (vs. before administration, %) ([1]; dose 0.1 mg/kg intravenously): 3.0 ± 8.0%
- changes in bladder capacity (vs. before administration, %) ([1]; dose 0.3 mg/kg intravenously): 71.2 ± 25.2 %
- changes in voiding pressure (vs. before administration, %) ([1]; dose 0.3 mg/kg intravenously): 4.9 ± 11.0%
- effect on bladder capacity (in words) [1]: increased the bladder capacity in a dose-dependent manner
- effect on voiding pressure (in words) [1]: without affecting the voiding pressure

Structure (SMILES): COc1ccc(-n2nnnc2C(F)(F)F)cc1CN[C@H]1CCN(C(=O)C(O)NC(C)=O)C[C@H]1c1ccccc1 (single isomer, unassigned) [Example 13]
- IC50 (substance P receptor): 0.062 nM

Structure (SMILES): CCN(CC)CC#CCOC(=O)C(O)(c1ccccc1)C1CCCCC1 (centres unmarked) [oxybutynin]
- changes in bladder capacity (vs. before administration, %) ([1]; dose 0.1 mg/kg intravenously): 1.8 ± 7.0%
- changes in voiding pressure (vs. before administration, %) ([1]; dose 0.1 mg/kg intravenously): 4.3 ± 7.5%
- changes in bladder capacity (vs. before administration, %) ([1]; dose 0.3 mg/kg intravenously): 19.3 ± 5.1 %
- changes in voiding pressure (vs. before administration, %) ([1]; dose 0.3 mg/kg intravenously): −11.6 ± 5.4%
- changes in bladder capacity (vs. before administration, %) ([1]; dose 1 mg/kg intravenously): 43.6 ± 7.7 %
- changes in voiding pressure (vs. before administration, %) ([1]; dose 1 mg/kg intravenously): −12.1 ± 8.8%
- changes in bladder capacity (vs. before administration, %) ([1]; dose 3 mg/kg intravenously): 36.8 ± 6.6 %
- changes in voiding pressure (vs. before administration, %) ([1]; dose 3 mg/kg intravenously): −6.0 ± 5.6%
- effect on bladder capacity (in words) [1]: significantly increased the bladder capacity
- effect on voiding pressure (in words) [1]: showed lower voiding pressure

Structure (SMILES): COc1ccc(-n2nnnc2C(F)(F)F)cc1CN[C@H]1CCN(C(=O)C2CCN(S(C)(=O)=O)CC2)C[C@H]1c1ccccc1 [Example 11, (3R,4S)-N-{2-methoxy-5-[5-(trifluoromethyl)-1H-tetrazol-1-yl]benzyl}-1-{[1-(methylsulfonyl)piperidin-4-yl]carbonyl}-3-phenylpiperidine-4-amine monohydrochloride]
- IC50 (substance P receptor): 0.021 nM

Structure (SMILES): COc1ccc(-n2nnnc2C(F)(F)F)cc1CN[C@H]1CCN(C(=O)CS(C)(=O)=O)C[C@H]1c1ccccc1 [Example 8, (3R,4S)-N-{2-methoxy-5-[5-(trifluoromethyl)-1H-tetrazol-1-yl]benzyl}-1-[(methylsulfonyl)acetyl]-3-phenylpiperidine-4-amine monohydrochloride]
- IC50 (substance P receptor): 0.022 nM

Structure (SMILES): CCC(=O)NCC(=O)N1CC[C@H](NCc2cc(-n3nnnc3C(F)(F)F)ccc2OC)[C@H](c2ccccc2)C1 [Example 9, N-{2-[(3R,4S)-4-({2-methoxy-5-[5-(trifluoromethyl)-1H-tetrazol-1-yl]benzyl}amino)-3-phenylpiperidin-1-yl]-2-oxoethyl}propanamide monohydrochloride]
- IC50 (substance P receptor): 0.012 nM

Structure (SMILES): COc1ccc(-n2nnnc2C(F)(F)F)cc1CN[C@H]1CCN(C(=O)CNC=O)C[C@H]1c1ccccc1 [Example 5, {2-[(3R,4S)-4-({2-methoxy-5-[5-(trifluoromethyl)-1H-tetrazol-1-yl]benzyl}amino)-3-phenylpiperidin-1-yl]-2-oxoethyl}formamide]
- IC50 (substance P receptor): 0.017 nM

Structure (SMILES): COc1ccc(-n2nnnc2C(F)(F)F)cc1CN[C@H]1CCN(C(=O)C(O)NC(C)=O)C[C@H]1c1ccccc1 (single isomer, unassigned) [Example 12]
- IC50 (substance P receptor): 0.016 nM

Structure (SMILES): Cc1ccc(O)c([C@H](CCN(C(C)C)C(C)C)c2ccccc2)c1 [tolterodine]
- changes in bladder capacity (vs. before administration, %) ([1]; dose 1 mg/kg intravenously): −3.4 ± 4.4%
- changes in voiding pressure (vs. before administration, %) ([1]; dose 1 mg/kg intravenously): 0.1 ± 5.7%
- changes in bladder capacity (vs. before administration, %) ([1]; dose 3 mg/kg intravenously): 14.8 ± 7.6%
- changes in voiding pressure (vs. before administration, %) ([1]; dose 3 mg/kg intravenously): −6.7 ± 6.5 %
- changes in bladder capacity (vs. before administration, %) ([1]; dose 10 mg/kg intravenously): 31.7 ± 9.1 %
- changes in voiding pressure (vs. before administration, %) ([1]; dose 10 mg/kg intravenously): −15.5 ± 4.6 %
- effect on bladder capacity (in words) [1]: significantly increased the bladder capacity
- effect on voiding pressure (in words) [1]: voiding pressure lowering action of tolterodine was significant

Structure (SMILES): COc1ccc(-n2nnnc2C(F)(F)F)cc1CN[C@H]1CCN(C(=O)C2CCNCC2)C[C@H]1c1ccccc1 [Example 10, (3R,4S)-N-(2-methoxy-5-[5-(trifluoromethyl)-1H-tetrazol-1-yl]benzyl)-3-phenyl-1-(piperidin-4-ylcarbonyl)piperidine-4-amine dihydrochloride]
- IC50 (substance P receptor): 0.016 nM

Structure (SMILES): COc1ccc(-n2nnnc2C(F)(F)F)cc1CN[C@H]1CCN(C(C)=O)C[C@H]1c1ccccc1 [Example 6, (3R,4S)-1-acetyl-N-{2-methoxy-5-[5-(trifluoromethyl)-1H-tetrazol-1-yl]benzyl}-3-phenylpiperidine-4-amine monohydrochloride]
- IC50 (substance P receptor): 0.026 nM
